Assay results taken from the kinase profiling compilation of Christmann-Franck et al. (2016).

Tests used:
Assay in all cases: radiometric filter-binding kinase assay, Kinase HotSpot
Settings in all cases: compound 0.5 µM; ATP 10 µM
ABL2 (human) = ABL2 (human) (UniProt P42684)
[1] = system: ARAF (human), P10398 [Y301D/Y302D]
AURKB (human) = AURKB (human) (UniProt Q96GD4)
BRAF (human) = BRAF (human) (UniProt P15056)
CAMK2D (human) = CAMK2D (human) (UniProt Q13557)
CAMKK2 (human) = CAMKK2 (human) (UniProt Q96RR4)
CDK1 CCNB1 (human) = CDK1 CCNB1 (human) (UniProt P06493+P14635)
CHEK2 (human) = CHEK2 (human) (UniProt O96017)
CLK4 (human) = CLK4 (human) (UniProt Q9HAZ1)
CSNK1G2 (human) = CSNK1G2 (human) (UniProt P78368)
CSNK2A2 (human) = CSNK2A2 (human) (UniProt P19784)
DAPK1 (human) = DAPK1 (human) (UniProt P53355)
EPHA1 (human) = EPHA1 (human) (UniProt P21709)
EPHA6 (human) = EPHA6 (human) (UniProt Q9UF33)
FER (human) = FER (human) (UniProt P16591)
FGFR3 (human) = FGFR3 (human) (UniProt P22607)
HCK (human) = HCK (human) (UniProt P08631)
HIPK1 (human) = HIPK1 (human) (UniProt Q86Z02)
IKBKE (human) = IKBKE (human) (UniProt Q14164)
INSR (human) = INSR (human) (UniProt P06213)
JAK3 JH1 JH2 (human) = JAK3 JH1 JH2 (human) (UniProt P52333)
LIMK1 (human) = LIMK1 (human) (UniProt P53667)
MAPK12 (human) = MAPK12 (human) (UniProt P53778)
MAPK3 (human) = MAPK3 (human) (UniProt P27361)
MYO3B (human) = MYO3B (human) (UniProt Q8WXR4)
NEK7 (human) = NEK7 (human) (UniProt Q8TDX7)
PAK4 (human) = PAK4 (human) (UniProt O96013)
PDPK1 (human) = PDPK1 (human) (UniProt O15530)
PKN2 (human) = PKN2 (human) (UniProt Q16513)
PRKACG (human) = PRKACG (human) (UniProt P22612)
PRKCB1 (human) = PRKCB1 (human) (UniProt P05771)
RPS6KA1 KD1 KD2 (human) = RPS6KA1 KD1 KD2 (human) (UniProt Q15418)
RPS6KB2 (human) = RPS6KB2 (human) (UniProt Q9UBS0)
STK38 (human) = STK38 (human) (UniProt Q15208)
TAOK1 (human) = TAOK1 (human) (UniProt Q7L7X3)
TLK2 (human) = TLK2 (human) (UniProt Q86UE8)
TNK2 (human) = TNK2 (human) (UniProt Q07912)
TSSK1B (human) = TSSK1B (human) (UniProt Q9BXA7)
TTK (human) = TTK (human) (UniProt P33981)
ULK3 (human) = ULK3 (human) (UniProt Q6PHR2)
PDGFRB (human) = PDGFRB (human) (UniProt P09619)

ULK3 (human), sequence (Q6PHR2 whole entry, looked up): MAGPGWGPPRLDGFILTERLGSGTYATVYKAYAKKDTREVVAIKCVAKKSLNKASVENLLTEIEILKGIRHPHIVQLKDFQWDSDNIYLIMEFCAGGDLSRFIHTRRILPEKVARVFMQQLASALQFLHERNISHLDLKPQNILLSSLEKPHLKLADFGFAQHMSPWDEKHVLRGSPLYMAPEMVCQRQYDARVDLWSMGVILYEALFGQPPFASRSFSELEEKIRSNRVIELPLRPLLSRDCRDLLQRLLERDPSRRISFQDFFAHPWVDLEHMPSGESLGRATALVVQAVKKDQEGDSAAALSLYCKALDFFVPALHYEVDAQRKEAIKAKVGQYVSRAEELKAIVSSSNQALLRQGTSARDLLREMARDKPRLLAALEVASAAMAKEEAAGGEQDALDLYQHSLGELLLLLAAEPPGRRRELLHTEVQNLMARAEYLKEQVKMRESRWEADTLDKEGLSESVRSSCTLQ
CHEK2 (human), sequence (O96017 whole entry, looked up): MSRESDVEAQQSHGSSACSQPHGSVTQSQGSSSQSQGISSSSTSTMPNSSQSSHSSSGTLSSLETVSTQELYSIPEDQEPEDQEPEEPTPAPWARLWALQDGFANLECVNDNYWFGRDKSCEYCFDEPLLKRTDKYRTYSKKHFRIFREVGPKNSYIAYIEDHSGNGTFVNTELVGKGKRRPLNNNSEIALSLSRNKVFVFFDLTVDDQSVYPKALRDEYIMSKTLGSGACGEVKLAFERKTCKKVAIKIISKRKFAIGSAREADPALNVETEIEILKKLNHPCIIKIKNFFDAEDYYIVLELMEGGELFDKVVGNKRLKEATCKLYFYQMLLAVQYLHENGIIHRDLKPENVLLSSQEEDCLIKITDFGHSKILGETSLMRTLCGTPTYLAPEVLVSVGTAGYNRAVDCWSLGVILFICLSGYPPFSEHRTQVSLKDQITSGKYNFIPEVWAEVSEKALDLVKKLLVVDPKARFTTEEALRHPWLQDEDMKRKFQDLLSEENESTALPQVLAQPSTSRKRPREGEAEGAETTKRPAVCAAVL
STK38 (human), sequence (Q15208 whole entry, looked up): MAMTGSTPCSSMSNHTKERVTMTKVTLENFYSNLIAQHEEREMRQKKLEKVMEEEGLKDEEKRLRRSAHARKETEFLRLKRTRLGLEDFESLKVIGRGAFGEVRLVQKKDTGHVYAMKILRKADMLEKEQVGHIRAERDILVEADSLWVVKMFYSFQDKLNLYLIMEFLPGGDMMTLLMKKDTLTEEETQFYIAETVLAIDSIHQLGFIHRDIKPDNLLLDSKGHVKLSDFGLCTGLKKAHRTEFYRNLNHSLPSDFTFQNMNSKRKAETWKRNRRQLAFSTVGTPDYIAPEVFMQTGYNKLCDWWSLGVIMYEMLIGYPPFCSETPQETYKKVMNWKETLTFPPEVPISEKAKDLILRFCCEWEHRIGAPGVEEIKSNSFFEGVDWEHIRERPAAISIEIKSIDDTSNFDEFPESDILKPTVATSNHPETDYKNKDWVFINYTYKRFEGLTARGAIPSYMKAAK
TLK2 (human), sequence (Q86UE8 whole entry, looked up): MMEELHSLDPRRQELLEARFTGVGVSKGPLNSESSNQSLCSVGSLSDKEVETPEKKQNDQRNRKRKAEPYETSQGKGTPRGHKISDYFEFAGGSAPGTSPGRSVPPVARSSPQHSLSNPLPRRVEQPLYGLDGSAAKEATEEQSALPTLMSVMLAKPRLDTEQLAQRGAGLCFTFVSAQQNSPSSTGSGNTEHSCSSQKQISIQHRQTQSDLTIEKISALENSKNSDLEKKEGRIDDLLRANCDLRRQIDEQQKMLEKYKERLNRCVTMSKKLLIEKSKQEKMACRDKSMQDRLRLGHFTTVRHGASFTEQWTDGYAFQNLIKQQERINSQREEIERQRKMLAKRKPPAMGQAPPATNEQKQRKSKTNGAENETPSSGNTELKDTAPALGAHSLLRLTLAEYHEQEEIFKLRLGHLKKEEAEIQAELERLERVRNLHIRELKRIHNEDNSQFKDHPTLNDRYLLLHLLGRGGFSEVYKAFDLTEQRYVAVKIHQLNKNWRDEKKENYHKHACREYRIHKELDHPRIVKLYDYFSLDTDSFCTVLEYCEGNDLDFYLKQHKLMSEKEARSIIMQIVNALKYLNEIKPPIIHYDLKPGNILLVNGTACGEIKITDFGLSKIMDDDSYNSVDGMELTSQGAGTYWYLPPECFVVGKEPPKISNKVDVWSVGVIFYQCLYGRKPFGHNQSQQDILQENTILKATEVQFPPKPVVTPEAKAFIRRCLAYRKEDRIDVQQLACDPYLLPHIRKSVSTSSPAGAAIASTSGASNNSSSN
CSNK1G2 (human), sequence (P78368 whole entry, looked up): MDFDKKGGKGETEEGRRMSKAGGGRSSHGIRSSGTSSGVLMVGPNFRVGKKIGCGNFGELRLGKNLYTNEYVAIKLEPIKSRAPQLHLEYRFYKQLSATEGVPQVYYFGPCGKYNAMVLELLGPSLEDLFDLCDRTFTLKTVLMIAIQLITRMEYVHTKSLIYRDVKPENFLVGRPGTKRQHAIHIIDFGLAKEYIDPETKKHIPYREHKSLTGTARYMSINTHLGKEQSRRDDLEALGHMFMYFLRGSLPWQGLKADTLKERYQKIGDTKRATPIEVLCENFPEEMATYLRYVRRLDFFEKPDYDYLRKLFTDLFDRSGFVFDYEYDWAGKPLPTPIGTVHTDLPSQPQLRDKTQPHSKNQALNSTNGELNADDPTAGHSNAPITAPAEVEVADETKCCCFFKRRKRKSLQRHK
IKBKE (human), sequence (Q14164 whole entry, looked up): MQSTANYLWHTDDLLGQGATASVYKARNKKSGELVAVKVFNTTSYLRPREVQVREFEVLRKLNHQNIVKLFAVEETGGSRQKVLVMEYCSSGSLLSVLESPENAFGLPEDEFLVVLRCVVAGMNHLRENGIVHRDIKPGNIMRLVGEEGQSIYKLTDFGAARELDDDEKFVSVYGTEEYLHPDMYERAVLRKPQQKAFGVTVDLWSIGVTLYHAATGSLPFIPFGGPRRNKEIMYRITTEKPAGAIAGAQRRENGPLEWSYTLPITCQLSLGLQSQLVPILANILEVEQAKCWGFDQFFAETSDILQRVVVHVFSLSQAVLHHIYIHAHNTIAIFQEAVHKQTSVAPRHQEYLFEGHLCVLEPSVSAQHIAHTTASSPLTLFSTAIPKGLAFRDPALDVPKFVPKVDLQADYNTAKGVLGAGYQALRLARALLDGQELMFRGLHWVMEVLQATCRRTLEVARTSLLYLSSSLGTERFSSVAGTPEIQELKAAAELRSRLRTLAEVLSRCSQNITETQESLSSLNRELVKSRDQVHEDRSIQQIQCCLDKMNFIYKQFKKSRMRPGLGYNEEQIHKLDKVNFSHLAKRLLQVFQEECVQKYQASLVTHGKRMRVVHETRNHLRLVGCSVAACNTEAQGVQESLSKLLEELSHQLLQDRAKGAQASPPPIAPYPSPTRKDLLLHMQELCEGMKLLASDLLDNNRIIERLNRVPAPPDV
EPHA1 (human), sequence (P21709 whole entry, looked up): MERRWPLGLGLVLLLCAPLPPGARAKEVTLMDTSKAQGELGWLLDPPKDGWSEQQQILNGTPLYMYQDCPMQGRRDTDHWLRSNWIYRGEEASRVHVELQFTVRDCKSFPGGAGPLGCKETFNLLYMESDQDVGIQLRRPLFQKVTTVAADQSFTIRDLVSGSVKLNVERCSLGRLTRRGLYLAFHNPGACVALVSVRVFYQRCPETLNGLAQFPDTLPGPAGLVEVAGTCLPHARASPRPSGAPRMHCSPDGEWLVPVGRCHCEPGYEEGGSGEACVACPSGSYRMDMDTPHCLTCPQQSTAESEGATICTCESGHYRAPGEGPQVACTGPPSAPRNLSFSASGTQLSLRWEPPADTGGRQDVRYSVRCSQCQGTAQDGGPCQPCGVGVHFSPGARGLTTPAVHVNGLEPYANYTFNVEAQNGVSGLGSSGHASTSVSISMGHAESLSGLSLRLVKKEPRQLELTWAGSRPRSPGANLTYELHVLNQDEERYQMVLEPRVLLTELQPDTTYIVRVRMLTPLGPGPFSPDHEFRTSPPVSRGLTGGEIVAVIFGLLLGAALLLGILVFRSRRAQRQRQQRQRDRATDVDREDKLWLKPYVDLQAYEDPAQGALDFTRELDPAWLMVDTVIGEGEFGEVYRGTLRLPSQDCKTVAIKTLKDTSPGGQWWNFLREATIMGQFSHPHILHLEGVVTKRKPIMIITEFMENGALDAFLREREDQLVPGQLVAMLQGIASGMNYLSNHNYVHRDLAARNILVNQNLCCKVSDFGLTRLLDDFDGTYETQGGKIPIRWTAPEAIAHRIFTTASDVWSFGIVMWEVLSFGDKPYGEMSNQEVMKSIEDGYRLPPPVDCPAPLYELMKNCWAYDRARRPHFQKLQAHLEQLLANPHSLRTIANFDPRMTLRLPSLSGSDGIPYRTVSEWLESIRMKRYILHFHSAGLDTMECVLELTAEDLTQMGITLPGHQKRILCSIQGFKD
AURKB (human), sequence (Q96GD4 whole entry, looked up): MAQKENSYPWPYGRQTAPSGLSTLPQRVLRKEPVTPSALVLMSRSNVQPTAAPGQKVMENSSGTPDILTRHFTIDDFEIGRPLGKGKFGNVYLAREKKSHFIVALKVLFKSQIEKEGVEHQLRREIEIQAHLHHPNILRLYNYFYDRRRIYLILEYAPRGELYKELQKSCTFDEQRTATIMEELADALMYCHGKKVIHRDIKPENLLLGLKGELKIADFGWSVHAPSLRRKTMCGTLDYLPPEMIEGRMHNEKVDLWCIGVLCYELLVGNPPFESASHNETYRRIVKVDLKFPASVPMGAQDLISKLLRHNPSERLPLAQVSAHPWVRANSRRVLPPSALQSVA
NEK7 (human), sequence (Q8TDX7 whole entry, looked up): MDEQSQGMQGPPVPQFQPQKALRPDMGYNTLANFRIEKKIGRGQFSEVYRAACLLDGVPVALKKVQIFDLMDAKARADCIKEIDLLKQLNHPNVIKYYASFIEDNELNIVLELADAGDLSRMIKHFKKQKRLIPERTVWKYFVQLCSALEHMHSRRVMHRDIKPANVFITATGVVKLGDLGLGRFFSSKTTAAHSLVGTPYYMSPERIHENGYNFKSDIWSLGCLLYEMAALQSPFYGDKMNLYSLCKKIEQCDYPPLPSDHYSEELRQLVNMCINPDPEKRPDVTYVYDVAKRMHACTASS

Clc1ccc(Nc2nnc(Cc3ccncc3)c3ccccc23)cc1
residual activity (ABL2 (human)): 101%
residual activity [1]: 97.6%
residual activity (AURKB (human)): 90%
residual activity (BRAF (human)): 92.2%
residual activity (CAMK2D (human)): 81.1%
residual activity (CAMKK2 (human)): 100%
residual activity (CDK1 CCNB1 (human)): 104%
residual activity (CHEK2 (human)): 98.5%
residual activity (CLK4 (human)): 108%
residual activity (CSNK1G2 (human)): 98.2%
residual activity (CSNK2A2 (human)): 106%
residual activity (DAPK1 (human)): 105%
residual activity (EPHA1 (human)): 96%
residual activity (EPHA6 (human)): 101%
residual activity (FER (human)): 91.4%
residual activity (FGFR3 (human)): 91.5%
residual activity (HCK (human)): 89.5%
residual activity (HIPK1 (human)): 99.2%
residual activity (IKBKE (human)): 95.7%
residual activity (INSR (human)): 99.9%
residual activity (JAK3 JH1 JH2 (human)): 92.1%
residual activity (LIMK1 (human)): 98.9%
residual activity (MAPK12 (human)): 96.8%
residual activity (MAPK3 (human)): 94.7%
residual activity (MYO3B (human)): 102%
residual activity (NEK7 (human)): 96.8%
residual activity (PAK4 (human)): 95.8%
residual activity (PDPK1 (human)): 88.3%
residual activity (PKN2 (human)): 99.9%
residual activity (PRKACG (human)): 116%
residual activity (PRKCB1 (human)): 83.5%
residual activity (RPS6KA1 KD1 KD2 (human)): 113%
residual activity (RPS6KB2 (human)): 101%
residual activity (STK38 (human)): 100%
residual activity (TAOK1 (human)): 98.7%
residual activity (TLK2 (human)): 102%
residual activity (TNK2 (human)): 91.7%
residual activity (TSSK1B (human)): 94.8%
residual activity (TTK (human)): 108%
residual activity (ULK3 (human)): 101%

O=C(Nc1ccc(Cl)cc1)c1ccccc1NCc1ccncc1
residual activity (ABL2 (human)): 93.4%
residual activity [1]: 91.4%
residual activity (AURKB (human)): 77.7%
residual activity (BRAF (human)): 90%
residual activity (CAMK2D (human)): 101%
residual activity (CAMKK2 (human)): 93.9%
residual activity (CDK1 CCNB1 (human)): 96.3%
residual activity (CHEK2 (human)): 94.5%
residual activity (CLK4 (human)): 107%
residual activity (CSNK1G2 (human)): 88.3%
residual activity (CSNK2A2 (human)): 98.3%
residual activity (DAPK1 (human)): 99.9%
residual activity (EPHA1 (human)): 97%
residual activity (EPHA6 (human)): 89.8%
residual activity (FER (human)): 80.4%
residual activity (FGFR3 (human)): 92.2%
residual activity (HCK (human)): 101%
residual activity (HIPK1 (human)): 92.7%
residual activity (IKBKE (human)): 98.9%
residual activity (INSR (human)): 88%
residual activity (JAK3 JH1 JH2 (human)): 87.8%
residual activity (LIMK1 (human)): 83.4%
residual activity (MAPK12 (human)): 97.3%
residual activity (MAPK3 (human)): 102%
residual activity (MYO3B (human)): 82%
residual activity (NEK7 (human)): 103%
residual activity (PAK4 (human)): 90.6%
residual activity (PDGFRB (human)): 45%
residual activity (PDPK1 (human)): 95.3%
residual activity (PKN2 (human)): 93.2%
residual activity (PRKACG (human)): 87.4%
residual activity (PRKCB1 (human)): 98.1%
residual activity (RPS6KA1 KD1 KD2 (human)): 92%
residual activity (RPS6KB2 (human)): 105%
residual activity (STK38 (human)): 97.5%
residual activity (TAOK1 (human)): 110%
residual activity (TLK2 (human)): 97.3%
residual activity (TNK2 (human)): 99.3%
residual activity (TSSK1B (human)): 103%
residual activity (TTK (human)): 102%
residual activity (ULK3 (human)): 84.7%
